According to US11110079B2, “Mebendazole polymorph for treatment and prevention of tumors” (THE JOHNS HOPKINS UNIVERSITY, priority 2015, dated 2021):

Tests used:
HT29 = HT29 colon cancer flank xenograft; type: in vivo, Nude mice
Protocol: (§1) FIGS. 9A-9E. […] Two human colorectal carcinoma cell lines, HT29 and SW480, were implanted subcutaneously into the flanks of Nude mice and treated for four weeks with 50 mg/kg MBZ by oral gavage. Tumor volumes were measured twice weekly, averaged, and plotted over the course of the experiment. HT29 xenograft (FIG. 9A) and SW480 xenograft (B) growth inhibitory curves. Resected flank tumors from each group were weighed at the end of the experiment and compared to untreated control (FIG. 9C, FIG. 9D) Paraffin-embedded flank tumor tissues were stained for Ki67 proliferation marker. […] Five randomly selected fields from each slide were quantified as the percent Ki67-positive cell×100/total number of cells and represent the mean+SEM of five animals. *, P<0.05.

[1] = test system: glioma and medulloblastoma cell lines; conditions: tissue culture; cited from earlier work
D425 medulloblastoma = assay: Orthotopic D425 medulloblastoma xenograft model (survival); type: in vivo, mouse; conditions: orthotopic D425 medulloblastoma xenograft; MBZ-C 50 mg/kg five days a week, elacridar 50 mg/kg 7 days
Protocol: The intracranial implantation of GL261-luc in the frontal lobe and D425 cells in the cerebellum of the mouse brain followed the procedure described before (3,4). Five days after tumor implantation, mice were gavaged with MBZ or the other benzimidazoles at 50 mg/kg five days a week. MBZ and other benzimidazoles were prepared by either mixing the power with PBS and sesame oil (1:1, v:v) (Sigma) or by grinding the tablets to powder and resuspending in the aforementioned PBS/sesame oil mixture. Elacridar was prepared as a 10 mg/ml suspension in 0.5% hydroxypropylmethylcellulose and 0.5% Tween 80 in PBS similarly as described before (15).

in vivo = conditions: mouse
Protocol: Female C57BL6 mice, 5-6 weeks of age, were purchased from NCl. Animal experimentation was conducted under an approved IACUC protocol and complied with local and national guidelines. All MBZ polymorphs and tablets were administered by oral gavage at a dose of 50 mg/kg. Elacridar was administered by oral gavage at 50 mg/kg 2 hours prior to the administration of MBZ-C. Mice (3 animals/time point) were first anesthetized via intraperitoneal injection of 60 μl of a stock solution containing ketamine hydrochloride (75 mg/kg) (100 mg/ml; Ketamine HCl; Abbot Laboratories, Chicago, Ill., USA) and xylazine (7.5 mg/kg) (100 mg/ml; Xyla-ject®, Phoenix Pharmaceutical, St. Joseph, Mo., USA) in a sterile 0.9% NaCl solution. Then the blood samples were taken by puncturing and aspiring from the left heart ventricle. Blood samples were mixed with 5 mM EDTA and centrifuged at 10000 g for 5 min to obtain the plasma for further analysis.
For brain distribution studies, mice were perfused under anesthesia with 20 ml ice-cold saline supplemented with 20 μl of 0.02% heparin by injecting slowly into the left heart ventricle using a 20 gauge needle. The right atrium was cut open before to allow the blood outflow. The yellow color of kidney indicated a good perfusion quality that was essential to deplete blood from the brain tissue. In GL261 tumor-bearing mice, GL261 tumor was distinguished from the normal brain by easily recognizable differences in color and shade. GL261 tumor was separated with a scalpel and the normal brain tissue was cut from the contralateral hemisphere. All brain samples were weighed and stored at −80° C. before processing.
Blood, brain and brain tumor tissues were harvested as a function of time after MBZ administration. To compare the pharmacokinetics of MBZ polymorphs, three cohorts of mice each were administered a single dose of 50 mg/kg by oral gavage. For the initial comparison studies, plasma samples were obtained at 1, 2.5, 4, 6, 8, 15, and 24 hours after MBZ administration while brain tissue was only collected at 6 hours. For the comparison studies of polymorph C with or without ELD, plasma and brain tissue samples were obtained at 2.5, 4, and 8 hours after MBZ administration. Brain tumor tissue samples were also obtained for polymorph C alone.
MBZ and the two metabolites, 2-amino-5-benzoyl-benzimidazole (MBZ-NH2, CAS 52329-60-9) and rac dihydro mebendazole (MBZ-OH, CAS 60254-95-7), were quantified in plasma, brain and brain tumor tissue. Tissue homogenates were prepared at a concentration of 200 mg/ml in plasma prior to extraction. Mebendazole and metabolites were extracted from 50 μl of plasma or tissue homogenates with 0.1 ml of methanol containing 0.5 μg/ml of the internal standard A620223.69. After centrifugation, the supernatant (60 μl) was mixed with water (40 μl) and then transferred into autosampler vials. […] The analytes were monitored using an AB Sciex triple quadrapole™ 5500 mass-spectrometric detector (Applied Biosystems, Foster City, Calif., USA) using electrospray ionization operating in positive mode. The spectrometer was programmed to allow the [MH+] ions of MBZ, MBZ-NH2, MBZ-OH, and A620223.69 at m/z 296.0, 238.0, 298.0, and 287.2, respectively to pass through the first quadrupole (Q1) and into the collision cell (Q2). The daughter ions for MBZ (m/z 263.9), MBZ-NH2 (m/z 105.1), MBZ-OH (m/z 266.0), and A620223.69 (m/z 124.1) were monitored through the third quadrupole (Q3). Calibration curves for MBZ and metabolites were computed using the area ratio peak of the analysis to the internal standard by using a quadratic equation with a 1/x weighting function over the range of 5 to 500 ng/ml (MBZ) and 1 to 500 ng/ml (metabolites) with dilutions of up to 1:100 (v:v). If one or more concentrations were below limits of quantification, a value of ½ the limit of quantification was assigned for pharmacokinetic calculations.

[2] = test system: polyps in the intestine of APC min/+ mice; assay: APC min/+ mouse chemoprevention study (intestinal polyps); type: in vivo
Protocol: The average number of polyps for each treatment group were graphed for the proximal, middle and distal small intestines and colon (FIG. 11A). Individual polyps were measured and categorized based on size. The average number of polyps for Sulindac versus the combiniation of MBZ+Sulindac were analyzed separately for each section of the intestine (FIG. 11B).

GL261-luc glioma = conditions: GL261, single agent 50 mg/kg; control 29.5 days
Protocol: All animal studies were approved by the Animal Care and Use Committee (ACUC) of the Johns Hopkins University. The intracranial implantation of GL261-luc in the frontal lobe and D425 cells in the cerebellum of the mouse brain followed the procedure described before (3,4). […] MBZ and other benzimidazoles were prepared by either mixing the power with PBS and sesame oil (1:1, v:v) (Sigma) or by grinding the tablets to powder and resuspending in the aforementioned PBS/sesame oil mixture. Elacridar was prepared as a 10 mg/ml suspension in 0.5% hydroxypropylmethylcellulose and 0.5% Tween 80 in PBS similarly as described before (15).
Animal survival data were analyzed by GraphPad Prism 5.0. The p-values were determined by a Mantel-Cox test. A p-value under 0.05 was accepted as statistically significant.

SW480 = SW480 colon cancer flank xenograft; type: in vivo, Nude mice
Protocol: as §1

[3] = mice; cited from earlier work
[4] = human; cited from earlier work

| SMILES | Ki67 proliferation marker staining (HT29; HT29 flank tumor tissue) | c-myc and Bcl-2 protein expression (HT29; HT29 flank xenograft lysates) | tumor growth and proliferation (HT29; HT29 xenograft, 50 mg/kg MBZ oral gavage four weeks) | IC50 [1] [nM] | median survival (D425 medulloblastoma) [days] | effect of ELD on average B/P ratios of MBZ (in vivo) | distribution in GL261 brain tumor vs contralateral normal brain tissue (in vivo; po, 50 mg/kg) | formation, occurrence and size of polyps [2] | median survival (GL261-luc glioma) [days] | Ki67 proliferation marker staining (SW480; SW480 flank tumor tissue) | c-myc and Bcl-2 protein expression (SW480; SW480 flank xenograft lysates) | tumor growth and proliferation (SW480; SW480 xenograft, 50 mg/kg MBZ oral gavage four weeks) | B/P ratio [3] | cerebrospinal fluid (CSF)/plasma ratio [4] |
| --- | --- | --- | --- | --- | --- | --- | --- | --- | --- | --- | --- | --- | --- | --- |
| COC(=O)Nc1nc2ccc(C(=O)c3ccccc3)cc2[nH]1 [MBZ, Mebendazole] | significantly less positive | reduction of these proteins in most cases | inhibits growth and proliferation | 110 to 1000 | 53 | elevated | did not differ significantly | reduces the formation of polyps | 53 | significantly less positive | reduction of these proteins in most cases | inhibits growth and proliferation |  |  |
| Cn1nnc2c(C(N)=O)ncn2c1=O [temozolomide] |  |  |  |  |  |  |  |  |  |  |  |  | 0.408 | 0.2 |
